How the values were obtained:
Assay type in all cases: functional, cell-based
HCT-116 = assay: Cytotoxicity against human HCT-116 cells assessed as inhibition of cell growth incubated for 72 hrs by CCK-8 assay; settings: HCT-116, 72 h
MDA-MB-231 = assay: Cytotoxicity against human MDA-MB-231 cells assessed as inhibition of cell growth incubated for 72 hrs by CCK-8 assay; settings: MDA-MB-231, 72 h
A549 = assay: Cytotoxicity against human A549 cells assessed as inhibition of cell growth incubated for 72 hrs by CCK-8 assay; settings: A549, 72 h

SMILES | IC50 (HCT-116) | IC50 (MDA-MB-231) | IC50 (A549)
CC(=O)O[C@H]1C=C([C@H](C)[C@H]2CC(C)=C(C)C(=O)O2)[C@@]2(C)CC[C@H]3[C@@H](C[C@H]4O[C@]45C[C@@H](O)CC(=O)[C@]35C)[C@@]12O | > 10 µM | > 10 µM | > 10 µM
CCO[C@H]1CC(=O)[C@]2(C)[C@H]3CC[C@]4(C)C([C@H](C)[C@H]5CC(C)=C(C)C(=O)O5)=C[C@H](OC(C)=O)[C@]4(O)[C@@H]3C[C@H]3O[C@]32[C@H]1O | > 10 µM | > 10 µM | > 10 µM
CC(=O)O[C@H]1C[C@H]([C@H](C)[C@H]2CC(C)=C(C)C(=O)O2)[C@@]2(C)CCC3[C@@H](C[C@@H](O)C4=CC=CC(=O)[C@@]43C)[C@@]12O (stereo not given in full) | > 10 µM | > 10 µM | > 10 µM
CC(=O)O[C@H]1[C@H](O)[C@](O)([C@H](C)[C@H]2CC(C)=C(C)C(=O)O2)[C@@]2(C)CC[C@H]3[C@@H](C[C@H]4O[C@]45[C@@H](O)C=CC(=O)[C@]35C)[C@@]12O | 7.2 µM | 9.1 µM | > 10 µM
CC(=O)O[C@H]1[C@@H]2O[C@]2([C@@H](C)[C@H]2CC(C)=C(C)C(=O)O2)[C@@]2(C)CC[C@H]3[C@@H](C[C@H](Cl)[C@]4(O)CC=CC(=O)[C@]34C)[C@@]12O | > 10 µM | > 10 µM | > 10 µM
CCO[C@H]1CC(=O)[C@]2(C)[C@H]3CC[C@]4(C)[C@@H]([C@H](C)[C@H]5CC(C)=C(C)C(=O)O5)C[C@H](O)[C@]4(O)[C@@H]3C[C@H]3O[C@]32[C@H]1O | > 10 µM | > 10 µM | > 10 µM
CC(=O)O[C@H]1C=C([C@H](C)[C@H]2CC(C)=C(C)C(=O)O2)[C@@]2(C)CC[C@H]3[C@@H](CC(=O)C4CC=CC(=O)[C@@]43C)[C@@]12O (stereo not given in full) | 9.2 µM | > 10 µM | > 10 µM
CC(=O)O[C@H]1C[C@H]([C@H](C)[C@@H]2OC(=O)C(C)=C(C)[C@@H]2O)[C@@]2(C)CC[C@H]3[C@@H](C[C@H]4O[C@]45[C@@H](O)C=CC(=O)[C@]35C)[C@@]12O | 8.5 µM | > 10 µM | 9.7 µM
CCO[C@H]1CC(=O)[C@]2(C)[C@H]3CC[C@@]4(C)[C@](O)([C@@H](OC(C)=O)C[C@@]4(O)[C@H](C)[C@H]4CC(C)=C(C)C(=O)O4)[C@@H]3C[C@H]3O[C@]32C1 | > 10 µM | > 10 µM | > 10 µM
CCO[C@H]1CC(=O)[C@]2(C)[C@H]3CC[C@@]4(C)[C@@](O)([C@@H]3C[C@H]3O[C@]32[C@H]1O)[C@@H](OC(C)=O)[C@@H]1O[C@@]14[C@H](C)[C@H]1CC(C)=C(C)C(=O)O1 | > 10 µM | > 10 µM | > 10 µM
CC(=O)O[C@H]1C=C([C@H](C)[C@H]2CC(C)=C(C)C(=O)O2)[C@@]2(C)[C@H](O)C[C@H]3[C@@H](C[C@@H](O)[C@@]4(O)CC=CC(=O)[C@]34C)[C@@]12O | > 10 µM | > 10 µM | > 10 µM
CO[C@H]1C=C([C@H](C)[C@H]2CC(C)=C(C)C(=O)O2)[C@@]2(C)CC[C@H]3[C@@H](C[C@@H](O)[C@@]4(Cl)CC=CC(=O)[C@]34C)[C@@]12O | 8.8 µM | 9.4 µM | > 10 µM
CCO[C@H]1CC(=O)[C@]2(C)[C@H]3CC[C@]4(C)C([C@H](C)[C@H]5CC(C)=C(C)C(=O)O5)=C[C@H](OC(C)=O)[C@]4(O)[C@@H]3C[C@H]3O[C@]32C1 | > 10 µM | > 10 µM | > 10 µM
CC(=O)O[C@H]1C[C@](O)([C@H](C)[C@H]2CC(C)=C(C)C(=O)O2)[C@@]2(C)CC[C@H]3[C@@H](C[C@H]4O[C@]45[C@@H](O)C=CC(=O)[C@]35C)[C@@]12O | 1.8 µM | 4.5 µM | 5.9 µM
CC1=C(C)C(=O)O[C@@H]([C@@H](C)C2=C[C@H](O)[C@]3(O)[C@@H]4C[C@H]5O[C@]56[C@@H](O)CCC(=O)[C@]6(C)[C@H]4CC[C@]23C)C1 | > 10 µM | > 10 µM | > 10 µM

From ChEMBL document CHEMBL5357007, “Withanolides from Physalis angulata var. villosa and the Relative Configurational Revision of Some Known Analogs” (J Nat Prod, 2024)
